Measured values as given in ChEMBL document CHEMBL4680147, “Discovery of 6'-chloro-N-methyl-5'-(phenylsulfonamido)-[3,3'-bipyridine]-5-carboxamide (CHMFL-PI4K-127) as a novel Plasmodium falciparum PI(4)K inhibitor with potent antimalarial activity against both blood and liver stages of Plasmodium” (Eur J Med Chem, 2020).

Columns and labels:
Plasmodium falciparum [1] = test: Antimalarial activity against sulphadoxine-resistant blood stage Plasmodium falciparum 3D7 infected in human O+ erythrocytes incubated for 72 hrs by SYBR Green 1 dye based fluorescence assay; type: functional, organism-based; details: 3D7, Erythrocyte
[2] = Inhibition of recombinant His-tagged Plasmodium falciparum 3D7 PI4K expressed in baculovirus infected Sf9 cells using PI:PS as substrate incubated for 1 hr in presence of ATP by ADP-Glo kinase assay
Plasmodium falciparum [3] = test: Antimalarial activity against chloroquine resistant Plasmodium falciparum FAB9 infected in human O+ erythrocytes incubated for 72 hrs by SYBR Green 1 dye based fluorescence assay; type: functional, organism-based; details: FAB9, Erythrocyte
[4] = biological target: Phosphatidylinositol 4,5-bisphosphate 3-kinase catalytic subunit alpha isoform (Homo sapiens, UniProt P42336); test: Inhibition of human PI3Kalpha by ADP-Glo kinase assay
[5] = biological target: Phosphatidylinositol 4-phosphate 3-kinase C2 domain-containing subunit beta (Homo sapiens, UniProt O00750); test: Inhibition of human PIK3C2beta by ADP-Glo kinase assay
[6] = biological target: Phosphatidylinositol 4-kinase beta (Homo sapiens, UniProt Q9UBF8); test: Inhibition of human PI4K3beta by ADP-Glo kinase assay
[7] = biological target: Phosphatidylinositol 3-kinase catalytic subunit type 3 (Homo sapiens, UniProt Q8NEB9); test: Inhibition of human VPS34 by ADP-Glo kinase assay
Plasmodium falciparum [8] = test: Antimalarial activity against mefloquine/chloroquine/pyrimethamine resistant Plasmodium falciparum Dd2 infected in human O+ erythrocytes incubated for 72 hrs by SYBR Green 1 dye based fluorescence assay; type: functional, organism-based; details: Dd2, Erythrocyte
Plasmodium falciparum [9] = test: Antimalarial activity against pyrimethamine/chloroquine resistant Plasmodium falciparum C2A infected in human O+ erythrocytes incubated for 72 hrs by SYBR Green 1 dye based fluorescence assay; type: functional, organism-based; details: Erythrocyte
Plasmodium falciparum [10] = test: Antimalarial activity against artemisinin and piperaquine-phosphate resistant Plasmodium falciparum 6320 infected in human O+ erythrocytes incubated for 72 hrs by SYBR Green 1 dye based fluorescence assay; type: functional, organism-based; details: Plasmodium falciparum, 6320, Erythrocyte
[11] = biological target: Phosphatidylinositol 4,5-bisphosphate 3-kinase catalytic subunit beta isoform (Homo sapiens, UniProt P42338); test: Inhibition of human PI3Kbeta by ADP-Glo kinase assay
Plasmodium falciparum [12] = test: Antimalarial activity against Plasmodium falciparum GB4 infected in human O+ erythrocytes incubated for 72 hrs by SYBR Green 1 dye based fluorescence assay; type: functional, organism-based; details: GB4, Erythrocyte
Plasmodium falciparum [13] = test: Antimalarial activity against pyrimethamine/chloroquine resistant Plasmodium falciparum CP286 infected in human O+ erythrocytes incubated for 72 hrs by SYBR Green 1 dye based fluorescence assay; type: functional, organism-based; details: CP286, Erythrocyte
[14] = Inhibition of human PIK3C2alpha by ADP-Glo kinase assay
[15] = biological target: Phosphatidylinositol 4-kinase alpha (Homo sapiens, UniProt P42356); test: Inhibition of human PI4K3alpha by ADP-Glo kinase assay
[16] = biological target: T1, Phosphatidylinositol 4,5-bisphosphate 3-kinase catalytic subunit delta isoform (Homo sapiens, UniProt O00329); test: Inhibition of human PI3Kdelta by ADP-Glo kinase assay
T1 sequence (O00329 whole entry): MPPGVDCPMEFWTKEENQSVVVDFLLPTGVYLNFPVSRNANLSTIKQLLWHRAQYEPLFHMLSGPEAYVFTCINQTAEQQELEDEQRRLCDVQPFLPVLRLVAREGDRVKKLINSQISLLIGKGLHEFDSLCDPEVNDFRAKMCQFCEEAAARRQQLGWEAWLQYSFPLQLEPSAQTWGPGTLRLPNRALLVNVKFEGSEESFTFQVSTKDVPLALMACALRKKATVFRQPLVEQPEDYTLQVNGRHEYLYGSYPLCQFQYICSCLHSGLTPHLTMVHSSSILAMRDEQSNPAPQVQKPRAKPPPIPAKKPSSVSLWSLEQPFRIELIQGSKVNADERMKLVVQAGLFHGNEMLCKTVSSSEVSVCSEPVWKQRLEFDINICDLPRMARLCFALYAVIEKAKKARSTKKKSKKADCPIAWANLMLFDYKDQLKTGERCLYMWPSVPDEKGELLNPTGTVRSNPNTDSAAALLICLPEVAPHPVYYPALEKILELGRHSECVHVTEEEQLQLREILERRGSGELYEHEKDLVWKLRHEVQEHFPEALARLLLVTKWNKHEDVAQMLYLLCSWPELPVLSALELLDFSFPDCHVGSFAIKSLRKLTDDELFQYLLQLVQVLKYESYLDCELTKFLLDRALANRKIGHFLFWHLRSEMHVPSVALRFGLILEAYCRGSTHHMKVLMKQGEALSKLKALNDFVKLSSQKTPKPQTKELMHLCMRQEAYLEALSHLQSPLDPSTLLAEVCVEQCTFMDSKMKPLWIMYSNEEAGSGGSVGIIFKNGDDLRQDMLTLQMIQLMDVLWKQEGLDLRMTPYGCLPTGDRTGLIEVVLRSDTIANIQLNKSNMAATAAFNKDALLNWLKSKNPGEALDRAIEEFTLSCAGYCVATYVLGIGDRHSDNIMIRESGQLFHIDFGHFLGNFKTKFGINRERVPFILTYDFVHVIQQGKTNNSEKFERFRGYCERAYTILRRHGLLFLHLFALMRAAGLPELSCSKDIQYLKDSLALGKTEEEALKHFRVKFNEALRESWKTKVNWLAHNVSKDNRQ

[17] = biological target: Phosphatidylinositol 4,5-bisphosphate 3-kinase catalytic subunit gamma isoform (Homo sapiens, UniProt P48736); test: Inhibition of human PI3Kgamma by ADP-Glo kinase assay
Plasmodium falciparum [18] = test: Antimalarial activity against chloroquine resistant Plasmodium falciparum D10 infected in human O+ erythrocytes incubated for 72 hrs by SYBR Green 1 dye based fluorescence assay; type: functional, organism-based; details: D10, Erythrocyte
Plasmodium falciparum [19] = test: Antimalarial activity against pyrimethamine/chloroquine resistant Plasmodium falciparum PC26 infected in human O+ erythrocytes incubated for 72 hrs by SYBR Green 1 dye based fluorescence assay; type: functional, organism-based; details: PC26, Erythrocyte
Plasmodium falciparum [20] = test: Antimalarial activity against artemisinin resistant Plasmodium falciparum 803 infected in human O+ erythrocytes incubated for 72 hrs by SYBR Green 1 dye based fluorescence assay; type: functional, organism-based; details: Plasmodium falciparum, 803, Erythrocyte

Sequence of Phosphatidylinositol 4,5-bisphosphate 3-kinase catalytic subunit beta isoform (P42338 whole entry, canonical isoform): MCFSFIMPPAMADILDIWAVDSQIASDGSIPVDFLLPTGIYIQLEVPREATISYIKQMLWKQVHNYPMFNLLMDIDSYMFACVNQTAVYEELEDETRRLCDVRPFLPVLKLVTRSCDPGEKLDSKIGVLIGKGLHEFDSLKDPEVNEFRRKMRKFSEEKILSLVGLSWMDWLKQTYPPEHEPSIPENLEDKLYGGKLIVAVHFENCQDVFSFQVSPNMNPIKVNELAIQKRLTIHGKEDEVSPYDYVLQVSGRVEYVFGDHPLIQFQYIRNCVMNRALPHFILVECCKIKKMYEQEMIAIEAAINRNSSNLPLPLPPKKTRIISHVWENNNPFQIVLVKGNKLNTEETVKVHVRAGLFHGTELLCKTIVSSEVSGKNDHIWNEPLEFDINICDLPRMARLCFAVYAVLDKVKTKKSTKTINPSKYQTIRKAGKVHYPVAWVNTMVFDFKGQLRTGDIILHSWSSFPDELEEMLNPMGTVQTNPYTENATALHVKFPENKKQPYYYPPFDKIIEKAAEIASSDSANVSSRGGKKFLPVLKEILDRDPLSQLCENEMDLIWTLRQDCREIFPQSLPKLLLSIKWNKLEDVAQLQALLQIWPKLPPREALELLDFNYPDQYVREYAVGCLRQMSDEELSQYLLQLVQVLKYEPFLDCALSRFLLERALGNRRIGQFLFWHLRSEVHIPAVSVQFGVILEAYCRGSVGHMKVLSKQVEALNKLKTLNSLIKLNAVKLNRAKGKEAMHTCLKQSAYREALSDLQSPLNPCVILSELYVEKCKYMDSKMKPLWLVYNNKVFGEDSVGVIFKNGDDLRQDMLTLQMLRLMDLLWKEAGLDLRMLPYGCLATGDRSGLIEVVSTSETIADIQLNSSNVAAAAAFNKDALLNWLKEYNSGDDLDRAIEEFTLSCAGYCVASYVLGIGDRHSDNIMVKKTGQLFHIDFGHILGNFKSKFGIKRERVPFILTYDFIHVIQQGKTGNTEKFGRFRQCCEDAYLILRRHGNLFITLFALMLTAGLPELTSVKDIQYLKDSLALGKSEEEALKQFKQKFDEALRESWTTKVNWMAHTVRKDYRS
Sequence of Phosphatidylinositol 4,5-bisphosphate 3-kinase catalytic subunit alpha isoform (P42336 whole entry, the tested form may be a part, canonical isoform): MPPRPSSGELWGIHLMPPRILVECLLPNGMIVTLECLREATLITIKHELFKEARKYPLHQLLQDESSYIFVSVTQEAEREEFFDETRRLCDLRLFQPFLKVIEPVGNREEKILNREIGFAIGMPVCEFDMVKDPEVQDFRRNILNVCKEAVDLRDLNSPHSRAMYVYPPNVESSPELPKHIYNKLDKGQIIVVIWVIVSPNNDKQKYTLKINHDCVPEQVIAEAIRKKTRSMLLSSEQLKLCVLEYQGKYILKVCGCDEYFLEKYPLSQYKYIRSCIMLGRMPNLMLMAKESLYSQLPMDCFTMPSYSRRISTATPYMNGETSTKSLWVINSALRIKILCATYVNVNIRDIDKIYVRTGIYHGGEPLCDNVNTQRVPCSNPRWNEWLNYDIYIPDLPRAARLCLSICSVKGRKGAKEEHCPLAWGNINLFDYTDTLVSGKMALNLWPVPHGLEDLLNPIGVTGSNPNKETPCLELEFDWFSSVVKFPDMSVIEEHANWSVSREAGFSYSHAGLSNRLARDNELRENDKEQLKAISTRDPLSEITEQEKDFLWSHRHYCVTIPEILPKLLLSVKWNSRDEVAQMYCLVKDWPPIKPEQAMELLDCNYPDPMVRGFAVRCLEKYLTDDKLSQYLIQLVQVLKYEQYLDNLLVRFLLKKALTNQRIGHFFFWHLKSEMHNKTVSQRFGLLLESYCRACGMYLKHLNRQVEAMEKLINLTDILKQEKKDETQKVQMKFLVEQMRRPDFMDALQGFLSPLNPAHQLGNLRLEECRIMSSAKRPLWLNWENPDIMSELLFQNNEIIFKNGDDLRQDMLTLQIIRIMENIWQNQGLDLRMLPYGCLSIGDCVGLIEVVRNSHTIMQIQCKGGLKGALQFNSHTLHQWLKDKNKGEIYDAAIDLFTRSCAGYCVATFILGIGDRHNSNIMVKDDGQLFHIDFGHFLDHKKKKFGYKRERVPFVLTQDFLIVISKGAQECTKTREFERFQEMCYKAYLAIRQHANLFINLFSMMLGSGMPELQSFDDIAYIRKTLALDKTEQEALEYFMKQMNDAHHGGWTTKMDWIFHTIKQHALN
Sequence of Phosphatidylinositol 4,5-bisphosphate 3-kinase catalytic subunit gamma isoform (P48736 whole entry, canonical isoform): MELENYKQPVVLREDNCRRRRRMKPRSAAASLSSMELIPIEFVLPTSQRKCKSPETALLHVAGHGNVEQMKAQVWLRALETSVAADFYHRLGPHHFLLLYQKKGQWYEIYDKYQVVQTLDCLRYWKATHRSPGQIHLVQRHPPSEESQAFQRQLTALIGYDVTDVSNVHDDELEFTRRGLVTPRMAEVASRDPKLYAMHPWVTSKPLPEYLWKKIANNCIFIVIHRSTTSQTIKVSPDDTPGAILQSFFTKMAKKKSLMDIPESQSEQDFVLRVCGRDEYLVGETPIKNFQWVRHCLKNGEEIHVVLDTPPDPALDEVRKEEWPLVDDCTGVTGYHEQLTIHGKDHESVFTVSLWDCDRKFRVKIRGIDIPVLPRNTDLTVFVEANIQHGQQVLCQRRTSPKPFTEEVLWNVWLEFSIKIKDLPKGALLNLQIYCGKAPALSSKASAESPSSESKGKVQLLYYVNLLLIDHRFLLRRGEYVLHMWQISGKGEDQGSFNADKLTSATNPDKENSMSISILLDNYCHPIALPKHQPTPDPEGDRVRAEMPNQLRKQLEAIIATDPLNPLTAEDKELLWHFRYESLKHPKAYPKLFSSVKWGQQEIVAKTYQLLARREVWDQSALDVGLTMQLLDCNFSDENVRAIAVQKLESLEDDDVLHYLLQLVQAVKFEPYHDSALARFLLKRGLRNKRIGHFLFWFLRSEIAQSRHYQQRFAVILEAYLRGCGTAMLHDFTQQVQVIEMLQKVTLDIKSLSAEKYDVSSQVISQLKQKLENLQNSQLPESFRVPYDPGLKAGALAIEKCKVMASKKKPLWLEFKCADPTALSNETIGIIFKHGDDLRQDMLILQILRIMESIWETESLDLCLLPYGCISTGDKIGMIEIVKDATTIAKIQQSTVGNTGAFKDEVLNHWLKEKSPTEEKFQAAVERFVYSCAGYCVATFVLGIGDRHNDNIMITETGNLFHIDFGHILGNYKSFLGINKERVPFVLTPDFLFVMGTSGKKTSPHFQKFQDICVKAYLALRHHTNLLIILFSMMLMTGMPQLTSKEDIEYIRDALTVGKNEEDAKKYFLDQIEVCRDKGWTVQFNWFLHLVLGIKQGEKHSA
Sequence of Phosphatidylinositol 4-phosphate 3-kinase C2 domain-containing subunit beta (O00750 whole entry, the tested form may be a part): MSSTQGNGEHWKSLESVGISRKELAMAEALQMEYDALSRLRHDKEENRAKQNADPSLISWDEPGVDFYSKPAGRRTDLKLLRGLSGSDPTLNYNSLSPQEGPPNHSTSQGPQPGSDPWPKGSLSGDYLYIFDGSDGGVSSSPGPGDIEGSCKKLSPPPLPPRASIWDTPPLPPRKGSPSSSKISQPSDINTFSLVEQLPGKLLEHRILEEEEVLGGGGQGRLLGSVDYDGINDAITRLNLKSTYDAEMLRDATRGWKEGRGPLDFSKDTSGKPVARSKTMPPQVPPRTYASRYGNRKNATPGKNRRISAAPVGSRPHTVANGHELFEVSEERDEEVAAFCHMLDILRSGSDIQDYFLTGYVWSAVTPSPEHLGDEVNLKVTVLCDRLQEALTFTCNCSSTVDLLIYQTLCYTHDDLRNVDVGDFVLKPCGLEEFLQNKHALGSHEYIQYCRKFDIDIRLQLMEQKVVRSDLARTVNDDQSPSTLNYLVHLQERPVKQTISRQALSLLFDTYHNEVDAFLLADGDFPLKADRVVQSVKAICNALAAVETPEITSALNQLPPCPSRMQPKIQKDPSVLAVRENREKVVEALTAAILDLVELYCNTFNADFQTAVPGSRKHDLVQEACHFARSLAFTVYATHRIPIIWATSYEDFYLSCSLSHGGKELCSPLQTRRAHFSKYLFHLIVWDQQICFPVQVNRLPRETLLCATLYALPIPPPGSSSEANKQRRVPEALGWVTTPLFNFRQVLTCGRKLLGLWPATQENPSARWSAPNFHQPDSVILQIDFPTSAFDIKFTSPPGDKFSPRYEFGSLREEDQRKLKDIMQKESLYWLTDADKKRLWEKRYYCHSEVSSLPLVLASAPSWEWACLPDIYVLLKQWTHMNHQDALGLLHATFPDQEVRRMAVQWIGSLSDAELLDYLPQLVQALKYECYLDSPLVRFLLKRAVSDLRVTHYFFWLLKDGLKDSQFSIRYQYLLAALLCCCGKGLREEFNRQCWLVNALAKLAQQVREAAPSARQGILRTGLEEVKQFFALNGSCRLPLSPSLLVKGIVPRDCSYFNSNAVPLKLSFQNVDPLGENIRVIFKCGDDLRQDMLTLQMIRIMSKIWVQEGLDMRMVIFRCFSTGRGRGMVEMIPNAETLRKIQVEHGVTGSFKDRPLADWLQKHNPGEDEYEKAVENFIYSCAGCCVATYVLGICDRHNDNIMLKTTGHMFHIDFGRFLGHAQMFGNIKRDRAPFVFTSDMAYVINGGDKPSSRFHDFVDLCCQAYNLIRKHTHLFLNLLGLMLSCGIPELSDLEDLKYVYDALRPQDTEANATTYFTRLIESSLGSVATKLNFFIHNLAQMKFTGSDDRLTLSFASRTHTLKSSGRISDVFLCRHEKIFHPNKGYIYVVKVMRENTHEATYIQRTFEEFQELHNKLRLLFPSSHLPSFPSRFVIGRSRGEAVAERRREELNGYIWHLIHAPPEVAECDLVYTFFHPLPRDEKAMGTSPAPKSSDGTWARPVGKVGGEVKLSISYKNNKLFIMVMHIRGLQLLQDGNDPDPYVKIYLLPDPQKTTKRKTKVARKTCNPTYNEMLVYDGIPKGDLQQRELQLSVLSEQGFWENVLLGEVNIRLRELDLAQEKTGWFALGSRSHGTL

| SMILES | EC50 (Plasmodium falciparum [1]) [µM] | IC50 [2] [nM] | other results |
| --- | --- | --- | --- |
| O=S(=O)(Nc1cc(-c2ccncc2)cnc1Cl)c1ccccc1 | > 10 | > 156 | – |
| CNC(=O)c1cccc(-c2cnc(Cl)c(NS(=O)(=O)c3ccccc3)c2)c1 | > 10 | > 156 | – |
| O=C(Nc1ccc(F)cc1)c1cncc(-c2cnc(Cl)c(NS(=O)(=O)c3ccccc3)c2)c1 | > 10 | > 156 | – |
| CNC(=O)c1ccc(-c2cnc3cnc(C(=O)N(C)c4ccc(Cl)cc4)cn23)cc1 | 0.0411 | 1.6 | EC50 (Plasmodium falciparum [3]): 44.8 nM; IC50 [4]: > 10 µM; IC50 [5]: > 10 µM; IC50 [6]: > 10 µM; IC50 [7]: 9.2 µM; EC50 (Plasmodium falciparum [8]): 46.7 nM; EC50 (Plasmodium falciparum [9]): 33.7 nM; EC50 (Plasmodium falciparum [10]): 33.6 nM; IC50 [11]: 2730 nM; EC50 (Plasmodium falciparum [12]): 39.2 nM; EC50 (Plasmodium falciparum [13]): 31.9 nM; IC50 [14]: > 10 µM; IC50 [15]: 1420 nM; IC50 [16]: 3.1 µM; IC50 [17]: 5.92 µM; EC50 (Plasmodium falciparum [18]): 43.9 nM; EC50 (Plasmodium falciparum [19]): 54.9 nM; EC50 (Plasmodium falciparum [20]): 41.8 nM |
| CN(C)[C@H]1CCN(C(=O)c2cncc(-c3cnc(Cl)c(NS(=O)(=O)c4ccccc4)c3)c2)C1 | > 10 | > 156 | – |
| CNC(=O)c1cncc(-c2cnc(Cl)c(NS(=O)(=O)c3ccccc3C(F)(F)F)c2)c1 | 0.087 | 0.5 | – |
| CNC(=O)c1cncc(-c2cnc(Cl)c(NC(=O)c3ccccc3)c2)c1 | > 10 | > 156 | – |
| O=C(Nc1ccccc1)c1cncc(-c2cnc(Cl)c(NS(=O)(=O)c3ccccc3)c2)c1 | 3.68 | 145 | – |
| NCCNC(=O)c1cncc(-c2cnc(Cl)c(NS(=O)(=O)c3ccccc3)c2)c1 | 0.13 | 13.8 | – |
| CNC(=O)c1cncc(-c2cnc(Cl)c(NS(=O)(=O)c3ccc(C)cc3C)c2)c1 | 0.039 | 2.2 | – |
| Cn1cc(-c2cnc(Cl)c(NS(=O)(=O)c3ccccc3)c2)cn1 | 1.49 | 10 | – |
| O=S(=O)(Nc1cc(-c2cnc3[nH]ccc3c2)cnc1Cl)c1ccccc1 | 3.94 | 7.7 | – |
| O=S(=O)(Nc1cc(-c2cccnc2)cnc1Cl)c1ccccc1 | 4.71 | 12.7 | – |
| CNC(=O)c1cncc(-c2cnc(Cl)c(NS(=O)(=O)c3cccc(C(F)(F)F)c3)c2)c1 | 3.5 | 2.5 | – |
| CNC(=O)c1cncc(-c2cnc(Cl)c(NS(=O)(=O)c3ccc(C)cc3)c2)c1 | 0.039 | 1.2 | – |
| O=C(Nc1cccc(F)c1)c1cncc(-c2cnc(Cl)c(NS(=O)(=O)c3ccccc3)c2)c1 | > 10 | > 156 | – |

| SMILES | EC50 (Plasmodium falciparum [1]) [µM] | IC50 [2] [nM] | other results |
| --- | --- | --- | --- |
| O=C(NCc1ccccc1)c1cncc(-c2cnc(Cl)c(NS(=O)(=O)c3ccccc3)c2)c1 | 3.57 | 8.5 | – |
| CNC(=O)c1cc(-c2cnc(Cl)c(NS(=O)(=O)c3ccccc3)c2)c[nH]1 | > 10 | > 156 | – |
| CNC(=O)c1cncc(-c2cnc(Cl)c(NS(=O)(=O)c3ccc(F)cc3F)c2)c1 | 3.4 | 0.4 | – |
| CNC(=O)c1cc(-c2cnc(Cl)c(NS(=O)(=O)c3ccccc3)c2)ccn1 | > 10 | > 156 | – |
| CNC(=O)c1cncc(-c2cnc(Cl)c(NS(=O)(=O)c3ccc(Cl)cc3)c2)c1 | 0.071 | 1.6 | – |
| CCCS(=O)(=O)Nc1cc(-c2cncc(C(=O)NC)c2)cnc1Cl | 0.48 | 13.2 | – |
| O=S(=O)(Nc1cc(-c2cnc3[nH]ncc3c2)cnc1Cl)c1ccccc1 | 4.67 | 5.6 | – |
| CNC(=O)c1cncc(-c2cnc(Cl)c(NS(=O)(=O)c3ccc4c(c3)CCO4)c2)c1 | 0.34 | 4.5 | – |
| CC(=O)n1ccc2cc(-c3cnc(Cl)c(NS(=O)(=O)c4ccccc4)c3)cnc21 | 1.05 | 8.1 | – |
| CNC(=O)c1cncc(-c2cnc(Cl)c(NS(=O)(=O)c3ccc(Cl)cc3Cl)c2)c1 | 0.12 | 1.2 | – |
| CNC(=O)c1cncc(-c2cnc(Cl)c(NS(=O)(=O)c3ccc(C(F)(F)F)cc3)c2)c1 | 0.13 | > 156 | – |
| CCNC(=O)c1cncc(-c2cnc(Cl)c(NS(=O)(=O)c3ccccc3)c2)c1 | 0.12 | 2.3 | – |
| CCS(=O)(=O)Nc1cc(-c2cncc(C(=O)NC)c2)cnc1Cl | 3.5 | 52.6 | – |
| CNC(=O)c1cncc(-c2cnc(Cl)c(NS(=O)(=O)c3ccc(-c4ccccc4)cc3)c2)c1 | 5.88 | 8.8 | – |
| CNC(=O)c1cncc(-c2cnc(Cl)c(NS(=O)(=O)c3cccc(-c4ccccc4)c3)c2)c1 | 7.7 | 7.5 | – |
| C[C@H](CN)NC(=O)c1cncc(-c2cnc(Cl)c(NS(=O)(=O)c3ccccc3)c2)c1 | > 10 | > 40 | – |
